# Measurements taken from publication PMC5218480 (PLoS ONE, 2017).
# Test system: MV-4-11 cells
# Test: Gene expression microarray analysis (Affymetrix PrimeView) and GSEA
# Type: cell-based, human
# Parameters: RFU PODN (11730768_x_at) / Fold change /veh PODN (11730768_x_at) / RFU LINC00158 (11744669_a_at) / Fold change /veh LINC00158 (11744669_a_at) / RFU DUSP10 (11751237_a_at) / Fold change /veh DUSP10 (11751237_a_at) / RFU ID3 (11757404_x_at) / Fold change /veh ID3 (11757404_x_at) / RFU PLEKHG5 (11737974_s_at) / Fold change /veh PLEKHG5 (11737974_s_at) / RFU LRRC4B (11730491_at) / Fold change /veh LRRC4B (11730491_at) / RFU GIMAP4 (11747438_a_at) / Fold change /veh GIMAP4 (11747438_a_at) / RFU KRT8 (11758183_x_at) / Fold change /veh KRT8 (11758183_x_at) / RFU CNN1 (11734310_a_at) / Fold change /veh CNN1 (11734310_a_at) / RFU VPS37D (11726825_at) / Fold change /veh VPS37D (11726825_at) / RFU C10orf10 (11716522_x_at) / Fold change /veh C10orf10 (11716522_x_at) / RFU KIR2DL2 /// KIR2DL4 /// KIR2DL5A /// KIR2DL5B /// KIR2DS1 /// KIR2DS2 /// KIR2DS3 /// KIR2DS4 /// KIR3DL3 /// KIR3DL3 /// KIR3DS1 (11738374_at) / Fold change /veh KIR2DL2 /// KIR2DL4 /// KIR2DL5A /// KIR2DL5B /// KIR2DS1 /// KIR2DS2 /// KIR2DS3 /// KIR2DS4 /// KIR3DL3 /// KIR3DL3 /// KIR3DS1 (11738374_at) / RFU C1QL1 (11718748_at) / Fold change /veh C1QL1 (11718748_at) / RFU TMPRSS4 (11747572_a_at) / Fold change /veh TMPRSS4 (11747572_a_at) / RFU HAMP (11756126_x_at) / Fold change /veh HAMP (11756126_x_at) / RFU RNFT2 (11725882_a_at) / Fold change /veh RNFT2 (11725882_a_at) / RFU NR4A2 (11747474_a_at) / Fold change /veh NR4A2 (11747474_a_at) / RFU ABCC12 (11746883_a_at) / Fold change /veh ABCC12 (11746883_a_at) / RFU TMEM136 (11760407_x_at) / Fold change /veh TMEM136 (11760407_x_at) / RFU CLDN22 /// WWC2 (11732394_at) / Fold change /veh CLDN22 /// WWC2 (11732394_at) / RFU HLA-DPB1 (11760878_x_at) / Fold change /veh HLA-DPB1 (11760878_x_at) / RFU SPINT1 (11716480_a_at) / Fold change /veh SPINT1 (11716480_a_at) / RFU GAP43 (11754022_s_at) / Fold change /veh GAP43 (11754022_s_at) / RFU A4GNT (11735810_at) / Fold change /veh A4GNT (11735810_at) / RFU PRB3 (11715151_x_at) / Fold change /veh PRB3 (11715151_x_at) / RFU TUBB4B (11761932_at) / Fold change /veh TUBB4B (11761932_at) / RFU CAPN14 (11732068_a_at) / Fold change /veh CAPN14 (11732068_a_at) / RFU TMCC2 (11721928_a_at) / Fold change /veh TMCC2 (11721928_a_at) / RFU IRGQ (11745062_a_at) / Fold change /veh IRGQ (11745062_a_at) / RFU FAM174B (11720279_a_at) / Fold change /veh FAM174B (11720279_a_at) / RFU TMPRSS4 (11748680_a_at) / Fold change /veh TMPRSS4 (11748680_a_at) / RFU FAM212B (11763350_a_at) / Fold change /veh FAM212B (11763350_a_at) / RFU PLEKHG5 (11743358_a_at) / Fold change /veh PLEKHG5 (11743358_a_at) / RFU ZSCAN30 (11745921_a_at) / Fold change /veh ZSCAN30 (11745921_a_at) / RFU CMKLR1 (11741424_a_at) / Fold change /veh CMKLR1 (11741424_a_at) / RFU LOC101060620 /// MAPK8IP1 (11723275_at) / Fold change /veh LOC101060620 /// MAPK8IP1 (11723275_at) / RFU SPTSSB (11747773_x_at) / Fold change /veh SPTSSB (11747773_x_at) / RFU PRSS12 (11739890_at) / Fold change /veh PRSS12 (11739890_at) / RFU BIN1 (11741810_x_at) / Fold change /veh BIN1 (11741810_x_at) / RFU WNT11 (11732464_a_at) / Fold change /veh WNT11 (11732464_a_at) / RFU C10orf10 (11716521_a_at) / Fold change /veh C10orf10 (11716521_a_at) / RFU C5orf56 (11738089_at) / Fold change /veh C5orf56 (11738089_at) / RFU CYB561 (11721691_x_at) / Fold change /veh CYB561 (11721691_x_at) / RFU ANKRD19P (11752326_a_at) / Fold change /veh ANKRD19P (11752326_a_at) / RFU OR2T12 /// OR2T33 /// OR2T8 (11738714_s_at) / Fold change /veh OR2T12 /// OR2T33 /// OR2T8 (11738714_s_at) / RFU VCAN (11748164_a_at) / Fold change /veh VCAN (11748164_a_at) / RFU JSRP1 (11732532_at) / Fold change /veh JSRP1 (11732532_at) / RFU KRTAP10-11 (11738290_x_at) / Fold change /veh KRTAP10-11 (11738290_x_at) / RFU MYO3A (11730013_a_at) / Fold change /veh MYO3A (11730013_a_at) / RFU EBF3 (11725865_a_at) / Fold change /veh EBF3 (11725865_a_at) / RFU CAMK2N1 (11719241_x_at) / Fold change /veh CAMK2N1 (11719241_x_at) / RFU C5orf56 (11738088_a_at) / Fold change /veh C5orf56 (11738088_a_at) / RFU OLFML3 (11715873_a_at) / Fold change /veh OLFML3 (11715873_a_at) / RFU LOC100653217 /// NTM (11731650_a_at) / Fold change /veh LOC100653217 /// NTM (11731650_a_at) / RFU MAPK11 (11762145_a_at) / Fold change /veh MAPK11 (11762145_a_at) / RFU FIZ1 (11724087_x_at) / Fold change /veh FIZ1 (11724087_x_at) / RFU OASL (11726364_x_at) / Fold change /veh OASL (11726364_x_at) / RFU SOX15 (11748057_x_at) / Fold change /veh SOX15 (11748057_x_at) / RFU CD79A (11719716_a_at) / Fold change /veh CD79A (11719716_a_at) / RFU HIST1H1D (11736915_at) / Fold change /veh HIST1H1D (11736915_at) / RFU CASKIN2 (11723855_a_at) / Fold change /veh CASKIN2 (11723855_a_at) / RFU LOC730098 (11760151_x_at) / Fold change /veh LOC730098 (11760151_x_at) / RFU OR4N2 (11742367_at) / Fold change /veh OR4N2 (11742367_at) / RFU PRRT2 (11749266_a_at) / Fold change /veh PRRT2 (11749266_a_at) / RFU SNX32 (11753110_a_at) / Fold change /veh SNX32 (11753110_a_at) / RFU CDHR5 (11726645_a_at) / Fold change /veh CDHR5 (11726645_a_at) / RFU RCAN1 (11760418_a_at) / Fold change /veh RCAN1 (11760418_a_at) / RFU FAM167A (11723789_a_at) / Fold change /veh FAM167A (11723789_a_at) / RFU FAM26E (11764081_at) / Fold change /veh FAM26E (11764081_at) / RFU ISYNA1 (11749810_s_at) / Fold change /veh ISYNA1 (11749810_s_at) / RFU ACY1 (11761880_at) / Fold change /veh ACY1 (11761880_at) / RFU 11764098_at / Fold change /veh 11764098_at / RFU SAMD14 (11745864_x_at) / Fold change /veh SAMD14 (11745864_x_at) / RFU NPB (11741838_a_at) / Fold change /veh NPB (11741838_a_at) / RFU TMPRSS6 (11731388_a_at) / Fold change /veh TMPRSS6 (11731388_a_at) / RFU KRTAP10-2 (11738614_at) / Fold change /veh KRTAP10-2 (11738614_at) / RFU ARHGAP8 /// PRR5-ARHGAP8 (11727945_x_at) / Fold change /veh ARHGAP8 /// PRR5-ARHGAP8 (11727945_x_at) / RFU KRTAP5-7 /// NADSYN1 (11734609_at) / Fold change /veh KRTAP5-7 /// NADSYN1 (11734609_at) / RFU RASL12 (11751679_a_at) / Fold change /veh RASL12 (11751679_a_at) / RFU CDKN2B (11736163_a_at) / Fold change /veh CDKN2B (11736163_a_at) / RFU PRF1 (11729649_at) / Fold change /veh PRF1 (11729649_at) / RFU, ZNF638 /// ZNF638-IT1 / Fold change vs veh, ZNF638 /// ZNF638-IT1 / RFU, PANK3 / Fold change vs veh, PANK3 / RFU, SH3YL1 / Fold change vs veh, SH3YL1 / RFU, ZEB2 / Fold change vs veh, ZEB2 / RFU, NRIP1 / Fold change vs veh, NRIP1 / RFU, PTTG1IP / Fold change vs veh, PTTG1IP / RFU, CAPN2 / Fold change vs veh, CAPN2 / RFU, MED14 / Fold change vs veh, MED14 / RFU, SNORA58 / Fold change vs veh, SNORA58 / RFU, C1orf63 / Fold change vs veh, C1orf63 / RFU, LRRFIP1 / Fold change vs veh, LRRFIP1 / RFU, NDUFAF7 / Fold change vs veh, NDUFAF7 / RFU, SLC12A2 / Fold change vs veh, SLC12A2 / RFU, IBTK / Fold change vs veh, IBTK / RFU, ESF1 / Fold change vs veh, ESF1 / Fold change vs veh, TMEM50B / RFU, TAOK1 / Fold change vs veh, TAOK1 / RFU, ACBD3 / Fold change vs veh, ACBD3 / RFU, TMA16 / Fold change vs veh, TMA16 / RFU, RWDD3 / Fold change vs veh, RWDD3 / RFU, BCAT1 / Fold change vs veh, BCAT1 / RFU, EDEM3 / Fold change vs veh, EDEM3 / RFU, TMEM33 / Fold change vs veh, TMEM33 / RFU, WDR75 / Fold change vs veh, WDR75 / RFU, AHCTF1 / Fold change vs veh, AHCTF1 / RFU, TFRC / Fold change vs veh, TFRC / RFU, ZDHHC17 / Fold change vs veh, ZDHHC17 / RFU, NOM1 / Fold change vs veh, NOM1 / RFU, ARL8B / Fold change vs veh, ARL8B / RFU, ZBTB11 / Fold change vs veh, ZBTB11 / RFU, TAMM41 / Fold change vs veh, TAMM41 / RFU, KIAA1704 /// LOC100996395 / Fold change vs veh, KIAA1704 /// LOC100996395 / RFU, ING1 / Fold change vs veh, ING1 / RFU, TRMT61B / Fold change vs veh, TRMT61B / RFU, FUBP3 / Fold change vs veh, FUBP3 / RFU, TP53 / Fold change vs veh, TP53 / RFU, TNKS2 / Fold change vs veh, TNKS2 / RFU, ZFP14 / Fold change vs veh, ZFP14 / RFU, ACTR2 / Fold change vs veh, ACTR2 / RFU, PPP3R1 / Fold change vs veh, PPP3R1 / RFU, PIK3R1 / Fold change vs veh, PIK3R1 / RFU, HNRNPA1 / Fold change vs veh, HNRNPA1 / RFU, RNF170 / Fold change vs veh, RNF170 / RFU, ZNF28 / Fold change vs veh, ZNF28 / RFU, RNGTT / Fold change vs veh, RNGTT / RFU, OGT / Fold change vs veh, OGT / RFU, BRD1 / Fold change vs veh, BRD1 / RFU, MARS / Fold change vs veh, MARS / RFU, ZNF655 / Fold change vs veh, ZNF655 / RFU, FAHD1 / Fold change vs veh, FAHD1 / RFU, BDP1 / Fold change vs veh, BDP1 / RFU, LRRCC1 / Fold change vs veh, LRRCC1 / RFU, ARID1A / Fold change vs veh, ARID1A / RFU, ZNF146 / Fold change vs veh, ZNF146 / RFU, ZNF330 / Fold change vs veh, ZNF330 / RFU, GPN3 / Fold change vs veh, GPN3 / RFU, C9orf123 / Fold change vs veh, C9orf123 / RFU, N4BP2L2 / Fold change vs veh, N4BP2L2 / RFU, ARFIP1 / Fold change vs veh, ARFIP1 / RFU, FAM179B / Fold change vs veh, FAM179B / RFU, BCL10 / Fold change vs veh, BCL10 / RFU, UHRF1BP1L / Fold change vs veh, UHRF1BP1L / RFU, BET1 / Fold change vs veh, BET1 / RFU, CNOT2 / Fold change vs veh, CNOT2 / RFU, ZNF268 / Fold change vs veh, ZNF268 / Fold change vs veh, ZNF507 / RFU, DGCR2 / Fold change vs veh, DGCR2 / RFU, WDSUB1 / Fold change vs veh, WDSUB1 / Fold change vs veh, HSP90B1 /// MIR3652 / RFU, ADSS / Fold change vs veh, ADSS / RFU, GK / Fold change vs veh, GK / RFU, ZNF148 / Fold change vs veh, ZNF148 / RFU, TAF9 / Fold change vs veh, TAF9 / RFU, SLC1A5 / Fold change vs veh, SLC1A5 / RFU, SLMO2 / Fold change vs veh, SLMO2 / RFU, ABCC4 / Fold change vs veh, ABCC4 / RFU, LOC101060439 /// RAP1B / Fold change vs veh, LOC101060439 /// RAP1B / RFU, RFX7 / Fold change vs veh, RFX7 / RFU, GTPBP10 / Fold change vs veh, GTPBP10 / RFU, CNEP1R1 / Fold change vs veh, CNEP1R1 / RFU, BIVM-ERCC5 /// ERCC5 / Fold change vs veh, BIVM-ERCC5 /// ERCC5 / RFU, ILF3 / Fold change vs veh, ILF3 / RFU 11762660_at / Fold change /veh 11762660_at / RFU VCAN (11757783_s_at) / Fold change /veh VCAN (11757783_s_at) / RFU DDX43 (11728927_at) / Fold change /veh DDX43 (11728927_at) / RFU KRT8 (11758188_x_at) / Fold change /veh KRT8 (11758188_x_at) / RFU NKD1 (11759106_at) / Fold change /veh NKD1 (11759106_at) / RFU SRD5A1 (11742802_a_at) / Fold change /veh SRD5A1 (11742802_a_at) / RFU TPSAB1 /// TPSB2 (11721975_s_at) / Fold change /veh TPSAB1 /// TPSB2 (11721975_s_at) / RFU GSTM3 (11746129_a_at) / Fold change /veh GSTM3 (11746129_a_at) / RFU IL23R (11737362_x_at) / Fold change /veh IL23R (11737362_x_at) / RFU TMEM51 (11727254_a_at) / Fold change /veh TMEM51 (11727254_a_at) / RFU PIWIL2 (11732686_x_at) / Fold change /veh PIWIL2 (11732686_x_at) / RFU ORM1 (11744905_x_at) / Fold change /veh ORM1 (11744905_x_at) / RFU CCDC152 (11743942_at) / Fold change /veh CCDC152 (11743942_at) / RFU ECM1 (11717891_a_at) / Fold change /veh ECM1 (11717891_a_at) / RFU IL23R (11748794_a_at) / Fold change /veh IL23R (11748794_a_at) / RFU TNFAIP8L3 (11732012_x_at) / Fold change /veh TNFAIP8L3 (11732012_x_at) / RFU MBOAT4 (11741988_at) / Fold change /veh MBOAT4 (11741988_at) / RFU 11764193_at / Fold change /veh 11764193_at / RFU TMEM53 (11763286_at) / Fold change /veh TMEM53 (11763286_at) / RFU MAGEB2 (11727129_at) / Fold change /veh MAGEB2 (11727129_at) / RFU TMEM200A (11744735_a_at) / Fold change /veh TMEM200A (11744735_a_at) / RFU CCDC152 (11751479_a_at) / Fold change /veh CCDC152 (11751479_a_at) / RFU FAM211A (11726209_a_at) / Fold change /veh FAM211A (11726209_a_at) / RFU RGS16 (11746705_a_at) / Fold change /veh RGS16 (11746705_a_at) / RFU VCAN (11755009_s_at) / Fold change /veh VCAN (11755009_s_at) / RFU RHOB (11743442_s_at) / Fold change /veh RHOB (11743442_s_at) / RFU RGS16 (11720943_a_at) / Fold change /veh RGS16 (11720943_a_at) / RFU RGS16 (11720944_at) / Fold change /veh RGS16 (11720944_at) / RFU, VPS4B / Fold change vs veh, VPS4B / RFU, CREB1 / Fold change vs veh, CREB1 / RFU, DNAJC13 / Fold change vs veh, DNAJC13 / RFU, GNAQ / Fold change vs veh, GNAQ / RFU, CDK5R1 / Fold change vs veh, CDK5R1 / RFU, ZRANB3 / Fold change vs veh, ZRANB3 / RFU, CUL4A / Fold change vs veh, CUL4A / RFU, CCNY / Fold change vs veh, CCNY / RFU, UFL1 / Fold change vs veh, UFL1 / RFU, COG3 / Fold change vs veh, COG3 / RFU, DIAPH2 / Fold change vs veh, DIAPH2 / RFU, SKA2 / Fold change vs veh, SKA2 / RFU, AFF3 / Fold change vs veh, AFF3 / RFU, LMF1 / Fold change vs veh, LMF1 / RFU, IPO11 / Fold change vs veh, IPO11 / RFU, DFFB / Fold change vs veh, DFFB / RFU, FOXP1 / Fold change vs veh, FOXP1 / RFU, CARD8 / Fold change vs veh, CARD8 / RFU, STRN3 / Fold change vs veh, STRN3 / RFU, ADK / Fold change vs veh, ADK / RFU, RASSF2 / Fold change vs veh, RASSF2 / RFU, WIPF1 / Fold change vs veh, WIPF1 / RFU, LARP1B / Fold change vs veh, LARP1B / RFU, RASA1 / Fold change vs veh, RASA1 / RFU, RB1 / Fold change vs veh, RB1 / RFU, PPFIA1 / Fold change vs veh, PPFIA1 / RFU, MAT2A / Fold change vs veh, MAT2A / RFU, CCT5 / Fold change vs veh, CCT5 / RFU, WDR92 / Fold change vs veh, WDR92 / RFU, CUX1 / Fold change vs veh, CUX1 / RFU, TTC7A / Fold change vs veh, TTC7A / RFU, TMEM135 / Fold change vs veh, TMEM135 / RFU, DEPTOR / Fold change vs veh, DEPTOR / RFU, CPM / Fold change vs veh, CPM / RFU, DNAJB6 / Fold change vs veh, DNAJB6 / RFU, CACNA2D3 / Fold change vs veh, CACNA2D3 / RFU, DTX4 / Fold change vs veh, DTX4 / RFU, TFCP2 / Fold change vs veh, TFCP2 / RFU, GMCL1 /// GMCL1P1 / Fold change vs veh, GMCL1 /// GMCL1P1 / RFU, AEBP2 / Fold change vs veh, AEBP2 / RFU, SNHG1 /// SNORD22 /// SNORD25 /// SNORD26 /// SNORD27 /// SNORD28 /// SNORD29 /// SNORD31 / Fold change vs veh, SNHG1 /// SNORD22 /// SNORD25 /// SNORD26 /// SNORD27 /// SNORD28 /// SNORD29 /// SNORD31 / Fold change (Aza/veh), C12orf56 (ProbeSet 11735607_a_at) / Fold change (ACY-1035/veh), C12orf56 (ProbeSet 11735607_a_at) / Fold change (Aza/veh), FGFR1OP (ProbeSet 11751329_s_at) / Fold change (ACY-1035/veh), FGFR1OP (ProbeSet 11751329_s_at) / Fold change (Aza/veh), VPS36 (ProbeSet 11739960_a_at) / Fold change (ACY-1035/veh), VPS36 (ProbeSet 11739960_a_at) / RFU SYPL1 (11715823_x_at) / Fold change /veh SYPL1 (11715823_x_at) / RFU IGFBP7 (11715501_s_at) / Fold change /veh IGFBP7 (11715501_s_at) / RFU REEP3 (11722064_at) / Fold change /veh REEP3 (11722064_at) / RFU IGLL1 (11728026_x_at) / Fold change /veh IGLL1 (11728026_x_at): dose or concentration left out as unconfirmed
# Details: ProbeSet 11758440_s_at; LIST B
smiles,measurement,value
Nc1ncn([C@@H]2O[C@H](CO)[C@@H](O)[C@H]2O)c(=O)n1 [azacitidine],"Fold change vs veh, RFX7",0.86
